In US9931315B2, “Method of selectively inhibiting Ras-mediated tumor growth in humans” (ADT PHARMACEUTICALS, INC., priority 2014, dated 2018):
pIC50: −log10 of the molar value. Where two headings read alike, the source gives them in different places.

Tests used:
Type in all cases: cell-based, human
HT-29 colon cancer cells = assay: Cell growth inhibition (CellTiter-Glo ATP assay), HT-29 cells with wild-type Ras; settings: Homo sapiens, HT-29
Procedure: (§1) This example illustrates cell growth assays employed in the present invention.
(§2) Normal rat kidney (NRK) and Ki-Ras transformed NRK cells (K-NRK) were obtained from ATCC, and were cultured according to supplier recommendations. CellTiter-Glo ATP cell growth assay reagents were obtained from Promega and used according to the manufacturer's protocol. Inhibitors of EGFR, Raf, and MEK were obtained from Selleck Chemicals. Cells were plated at a density of 5,000 cells per well in 96-well microplates or 1,250 cells per well in 384-well plates, and allowed to attach for at least 4 h. Test compounds were dissolved in dimethyl sulfoxide (DMSO), and this working stock was further diluted in growth medium for addition to cell cultures. Serial dilutions of the test compound were prepared in growth medium containing an equal amount of DMSO not exceeding 0.2% final concentration. Each compound concentration was tested in at least 3 separate samples per cell line. At the end of a 3-day treatment period, growth inhibition was analyzed using a bioluminescent assay of ATP concentration (Promega CellTiter-Glo) according to the manufacturer's protocol. Resulting luminescence was measured using the luminescence cartridge of the Molecular Devices Spectramax Paradigm microplate reader. Relative growth inhibition for each sample was determined by comparison with the values obtained for vehicle treated control samples. Growth inhibition values were plotted with the GraphPad Prism5 software using the 4-parameter logistic fit to obtain IC50 values, which corresponds to the growth inhibitory potency of the compound.
(§3) This example illustrates effects of exemplary compounds of the present invention on cancer cells having activated or mutated Ras compared to wild-type (WT) Ras. […] A549 lung cancer cells, which harbor a mutation in the K-Ras oncogene were treated for three days with the compounds.
(§4) Cells were seeded in 384-well plates and allowed to attach. Ten-fold serial dilutions of compounds were tested. Each compound concentration was tested in at least 3 separate samples per cell line.

SW-480 cells = assay: Cell growth inhibition (CellTiter-Glo), SW-480 colorectal cells with activated Ras; settings: for pIC50: Homo sapiens, SW480, growth inhibition, 384-well plates, Table 3, read-out: SW-480 (Ras Activated IC50); for Selectivity Caco-2/SW-480: ratio IC50 Caco-2 (WT Ras) / IC50 SW-480 (Ras activated)
Procedure: as §1, §2
The growth inhibitory activity of the compounds was tested using the CellTiter-Glo assay. Cells were seeded in 384-well plates and allowed to attach, then ten-fold serial dilutions of compounds were tested. Each concentration was tested in at least 3 separate samples per cell line.
as §4

A549 lung cancer cells = assay: Cell growth inhibition (CellTiter-Glo ATP assay), A549 cells with mutant K-Ras; settings: for pIC50: Homo sapiens, A549, 72 h, growth inhibition, three days treatment, K-Ras mutant lung cancer cells, read-out: A549 (Ras-activated) IC50; for Selectivity HT-29/A549: ratio IC50 HT-29 (WT Ras) / IC50 A549 (Ras-activated)
Procedure: This example illustrates cell growth assays employed in the present invention. Cells used in such assays included A-549, HT-29, MDA-MB-231, Colo-205, Caco2, HCT-116, SW-480, and DLD-1 human cancer cells obtained from the American Type Culture Collection (ATCC).
as §2, with “Human tumor cells were cultured using standard methods in RPMI-1640 growth medium supplemented with 5% fetal bovine serum (FBS). Normal” for “Normal”
as §3

Caco-2 cells = assay: Cell growth inhibition (CellTiter-Glo), Caco-2 colorectal cells with wild-type Ras; settings: Homo sapiens, Caco-2; growth inhibition, 384-well plates, Table 3; read-out: Caco-2 (WT Ras) IC50
[1] = tested on: HCT-116 colon tumor cells; assay: Cell growth inhibition (CellTiter-Glo), HCT-116 colon tumor cells expressing mutant Ras; settings: ratio IC50 HT-29 (WT Ras) / IC50 HCT-116 (mutant Ras), 5000 cells/well, 96-well plates
Procedure: This example illustrates cell growth assays employed in the present invention. […] Normal rat kidney (NRK) and Ki-Ras transformed NRK cells (K-NRK) were obtained from ATCC, and were cultured according to supplier recommendations. CellTiter-Glo ATP cell growth assay reagents were obtained from Promega and used according to the manufacturer's protocol. Inhibitors of EGFR, Raf, and MEK were obtained from Selleck Chemicals. Cells were plated at a density of 5,000 cells per well in 96-well microplates or 1,250 cells per well in 384-well plates, and allowed to attach for at least 4 h. Test compounds were dissolved in dimethyl sulfoxide (DMSO), and this working stock was further diluted in growth medium for addition to cell cultures. Serial dilutions of the test compound were prepared in growth medium containing an equal amount of DMSO not exceeding 0.2% final concentration. Each compound concentration was tested in at least 3 separate samples per cell line. At the end of a 3-day treatment period, growth inhibition was analyzed using a bioluminescent assay of ATP concentration (Promega CellTiter-Glo) according to the manufacturer's protocol. Resulting luminescence was measured using the luminescence cartridge of the Molecular Devices Spectramax Paradigm microplate reader. Relative growth inhibition for each sample was determined by comparison with the values obtained for vehicle treated control samples. […] This example illustrates use of well-established human colon tumor cell lines with widely divergent Ras activation status to determine selectivity values for exemplary compounds of the present invention. […] Cells were plated at 5000 cells/well in 96-well plates, and viable cell numbers were measured using the Cell Titer Glo ATP luminescence assay (Promega). […] Cells were seeded in 384-well plates and allowed to attach. Ten-fold serial dilutions of compounds were tested. Each compound concentration was tested in at least 3 separate samples per cell line.

[2] = growth inhibition, colon cancer cells with wild-type Ras, Table 2, read-out: HT-29 (WT Ras) IC50

Structure (SMILES) | pIC50 (HT-29 colon cancer cells; [2]) | pIC50 (SW-480 cells) | Selectivity Caco-2/SW-480 (SW-480 cells) | pIC50 (A549 lung cancer cells) | Selectivity HT-29/A549 (A549 lung cancer cells) | pIC50 (Caco-2 cells) | HT-29/HCT-116 selectivity values [1] | pIC50 (HT-29 colon cancer cells; known Ras pathway inhibitors, 384-well plates, Table 4, read-out: HT-29 IC50)
COc1ccc2c(c1)C(CC(=O)NCc1ccco1)=C(C)/C2=C/c1cc(C)c(O)c(C)c1 [Compound 001, (Z)—N-(furan-2-ylmethyl)-2-(1-(4-hydroxy-3,5-dimethylbenzylidene)-5-methoxy-2-methyl-1H-inden-3-yl)acetamide] | 5.20 | 6.36 | 3 | 6.15 | 9 | 5.96 |  | 
COc1cc(/C=C2/C(C)=C(CC(=O)NCc3ccco3)c3cc(F)ccc32)cc(OC)c1OC=O [Compound 002, (Z)-2-(5-fluoro-1-(4-formoxy-3,5-dimethoxybenzylidene)-2-methyl-1H-inden-3-yl)-N-(furan-2-ylmethyl)acetamide] |  |  |  |  |  |  | 112 | 
COc1ccc2c(c1)C(CC(=O)NCCN(C)C)=C(C)/C2=C/c1cc(OC)c(O)c(OC)c1 [Compound 003, (Z)—N-(2-(dimethylamino)ethyl)-2-(1-(4-hydroxy-3,5-dimethoxybenzylidene)-5-methoxy-2-methyl-1H-inden-3-yl)acetamide] | 5.39 |  |  | 5.44 | 1 |  |  | 
COc1ccc2c(c1)C(CC(=O)Nc1cccnc1)=C(C)/C2=C/c1cc(OC)c(O)c(OC)c1 [Compound 004, (Z)-2-(1-(4-hydroxy-3,5-dimethoxybenzylidene)-5-methoxy-2-methyl-1H-inden-3-yl)-N-(pyridin-3-yl)acetamide] | 6.04 | 6.06 | 2 | 7.10 | 12 | 5.80 |  | 
COc1ccc2c(c1)C(CC(=O)NC1CCN(C)C1)=C(C)/C2=C/c1cc(OC)c(O)c(OC)c1 (stereo not shown) [Compound 005, (Z)-2-(1-(4-hydroxy-3,5-dimethoxybenzylidene)-5-methoxy-2-methyl-1H-inden-3-yl)-N-(1-methylpyrrolidin-3-yl)acetamide] | 5.14 |  |  | 5.23 | 1 |  |  | 
COc1cc2c(cc1OC)/C(=C\c1cc(OC)c(O)c(OC)c1)C(C)=C2CC(=O)NCc1ccco1 [Compound 008, (Z)—N-(furan-2-ylmethyl)-2-(1-(4-hydroxy-3,5-dimethoxybenzylidene)-5,6-dimethoxy-2-methyl-1H-inden-3-yl)acetamide] | 5.81 | 6.86 | 10 | 6.78 | 9 | 5.88 |  | 
COc1ccc2c(c1)C(CC(=O)NCc1cccnc1)=C(C)/C2=C/c1cc(OC)c(O)c(OC)c1 [Compound 009, (Z)-2-(1-(4-hydroxy-3,5-dimethoxybenzylidene)-5-methoxy-2-methyl-1H-inden-3-yl)-N-(pyridin-3-ylmethyl)acetamide] | 5.32 | 6.65 | 12 | 6.45 | 14 | 5.58 |  | 
COc1ccc2c(c1)C(CC(=O)NCc1ccco1)=C(C)/C2=C/c1ccc(O)c(OC)c1 [Compound 012, (Z)—N-(furan-2-ylmethyl)-2-(1-(4-hydroxy-3-methoxybenzylidene)-5-methoxy-2-methyl-1H-inden-3-yl)acetamide] | 6.05 |  |  | 6.77 | 5 |  |  | 
COc1ccc2c(c1)C(CC(=O)NCc1ccco1)=C(C)/C2=C/c1cc(Br)c(O)c(OC)c1 [Compound 013, (Z)-2-(1-(3-bromo-4-hydroxy-5-methoxybenzylidene)-5-methoxy-2-methyl-1H-inden-3-yl)-N-(furan-2-ylmethyl)acetamide] | 6.14 |  |  | 6.52 | 2 |  |  | 
COc1ccc2c(c1)C(CC(=O)NCc1ccco1)=C(C)/C2=C/c1cc(Cl)c(O)c(OC)c1 [Compound 014, (Z)-2-(1-(3-chloro-4-hydroxy-5-methoxybenzylidene)-5-methoxy-2-methyl-1H-inden-3-yl)-N-(furan-2-ylmethyl)acetamide] | 6.30 |  |  | 6.96 | 5 |  |  | 
COc1cc(/C=C2/C(C)=C(CC(=O)NCc3ccccc3)c3cc(F)ccc32)cc(OC)c1O [Compound 015, (Z)—N-benzyl-2-(5-fluoro-1-(4-hydroxy-3,5-dimethoxybenzylidene)-2-methyl-1H-inden-3-yl)acetamide] |  |  |  |  |  |  | 80 | 
COc1cc(/C=C2/C(C)=C(CC(=O)NCc3cccn3C)c3cc(F)ccc32)cc(OC)c1O [Compound 019, (Z)-2-(5-fluoro-1-(4-hydroxy-3,5-dimethoxybenzylidene)-2-methyl-1H-inden-3-yl)-N-((1-methyl-1H-pyrrol-2-yl)methyl)acetamide] |  |  |  |  |  |  | 188 | 
COc1ccc2c(c1)C(CC(=O)NCc1ccc[nH]1)=C(C)/C2=C/c1cc(OC)c(O)c(OC)c1 [Compound 022, (Z)—N-((1H-pyrrol-2-yl)methyl)-2-(1-(4-hydroxy-3,5-dimethoxybenzylidene)-5-methoxy-2-methyl-1H-inden-3-yl)acetamide] |  |  |  |  |  |  | 117 | 
COc1cc(/C=C2/C(C)=C(CC(=O)NCc3ccco3)c3cc(F)ccc32)cc(OC)c1OS(C)(=O)=O [Compound 029, (Z)-2-(5-fluoro-1-(4-mesyloxy-3,5-dimethoxybenzylidene)-2-methyl-1H-inden-3-yl)-N-(furan-2-ylmethyl)acetamide] |  |  |  |  |  |  | 35 | 
COc1cc(/C=C2/C(C)=C(CC(=O)Nc3ccccc3)c3cc(F)ccc32)cc(OC)c1O [Compound 035, (Z)-2-(5-fluoro-1-(4-hydroxy-3,5-dimethoxybenzylidene)-2-methyl-1H-inden-3-yl)-N-phenylacetamide] |  |  |  |  |  |  | 31 | 
OCCn1cc(-c2ccc3c(c2)CC/C3=N\O)c(-c2ccncc2)n1 [GDC0879, reference compound] |  |  |  |  |  |  |  | 4.63
